Source: patent US20250263439A1, “HETERODIMERIC PEPTIDE REAGENTS AND METHODS” (REGENTS OF THE UNIVERSITY OF MICHIGAN, priority 2018, published 2025)
Values joined by “and” are separate entries in the source; they are usually repeats but may differ in a detail not shown here. Equal values may be shown once. “Also recorded” adds a separate entry of the source. Bridge positions count the residues as written; N and C are the ends. Square brackets hold non-standard residues; d marks the D form. Ends that are not written are not given here. Peptide text beside a SMILES is read from it. I, II: the chains in the order shown. * marks the point of attachment. X1 = CC1(C)C(=CC=C2CCCC(C=CC3=[N+](CCCCCC(=O)NCCN4C(=O)CC(*)C4=O)c4ccc(S(=O)(=O)O)cc4C3(C)C)=C2Oc2ccc(S(=O)(=O)O)cc2)N(CCCCS(=O)(=O)[O-])c2ccc(S(=O)(=O)O)cc21; AEEEA = NCCOCCOCCOCC(=O)O

Legend:
[1] = system: OE19, OE21, OE33 and SKBr3 cancer cells; test: Cytotoxicity of IRDye800 heterodimer in panel of human cancer cells; assay type: cell-based; conditions: 48 hours, concentrations up to 500 μg/mL
[2] = system: SKBr3 cells; test: Confocal cell surface binding of IRDye800 heterodimer to cell panel; assay type: cell-based, human
Protocol: Confocal microscopy was performed to validate specific heterodimer binding. […] AF568-labeled anti-EGFR and AF488-labeled anti-HER2 antibodies were used as positive controls to confirm EGFR and HER2 expression by the cell panel. Heterodimer and antibody binding to the surface (arrows) of SKBr3 cells co-localize, and a Pearson's coefficient of ρ=0.58 and 0.65 was measured for EGFR and HER2, respectively, on merged images, FIG. 23A-F.

[3] = system: human OE33 xenograft tumors; test: In vivo fluorescence (FL) imaging of OE33 xenograft tumors (IRDye800); parameters: species or system mice; conditions: for Fluorescence T/B ratio, mean (±SD): 2 hours post-injection, n=6 mice
Protocol: (§1) FL and PA images were collected following systemic administration of QRH*-KSP*-E3-IRDye800 and (GGGAGGG (SEQ ID NO: 28))2-E3-IRDye800 (control) in human OE33 xenograft tumors to characterize pharmacokinetics. […] The mean intensity for either modality regressed to baseline at ˜24 hours post-injection.

[4] = system: human OE33 xenograft tumors; test: In vivo photoacoustic (PA) imaging of OE33 xenograft tumors (IRDye800); parameters: species or system mice; conditions: for Photoacoustic T/B ratio, mean: 2 hours post-injection
Protocol: as §1
Dual-modal images were collected at 2 hours following heterodimer injection to assess imaging depth. […] An ultrasound image confirmed tumor structure, FIG. 20D.

[5] = system: human OE33 xenograft tumors; test: Biodistribution of IRDye800 heterodimer in major organs; parameters: species or system mice; conditions: mouse, in vivo
Protocol: (§2) Tumor-bearing mice were sacrificed at 2 hours post-injection of heterodimer or control peptide.

[6] = FL intensity in serum of tumor bearing mice over 48 hours; assay type: in vivo; conditions: mouse, 45 nmol
Protocol: FIG. 19A) White light and FIG. 19B) FL images (λex=800 nm) are shown of heterodimer distribution in major organs at 2 hours post-injection. FIG. 19C) Mean (±SD) fluorescence intensity for heterodimer and control peptide was shown from n=6 mice each. […] FIG. 19D) FL intensity from serum of tumor bearing mice injected with heterodimer (300 μM, 150 μL PBS, n=6) is shown over 48 hours. Blood prior to heterodimer injection is shown as control.
as §2

[7] = system: OE33 human xenograft tumor; test: Immunofluorescence of OE33 xenograft tumor sections ex vivo
Protocol: Immunofluorescence was performed to validate target expression in sections of OE33 human xenograft tumor ex vivo.

[8] = system: EGFR and ErbB2 mediated signaling; test: Effect on downstream cell signaling in SKBr3 cells (Western blot); assay type: cell-based, human
Protocol: The effect of heterodimer binding on downstream signaling was evaluated in SKBr3 cells. SKBr3 cells were seeded in 6-well flat-bottom plates. […] EGF (#E9644, Sigma) was reconstituted to 1 mg/mL using 10 mM acetic acid, diluted with 0.1% BSA, and added to SKBr3 cells at a concentration of 100 ng/mL. Lapatinib (CDS022971, Sigma) was diluted to 100 nM in DMSO and PBS from 1 mg/mL stock solution, and was added to the cells incubated with heterodimer at concentrations of 1, 5, and 20 μM in separate wells.

[9] = Marshall et al.; cited from earlier work
[10] = system: OE33 cells; test: Apparent dissociation constant by flow cytometry with OE33 cells; assay type: binding, human; conditions: flow cytometry, 4° C.
Protocol: The apparent dissociation constant (Kd) was measured to assess binding affinity of the heterodimer to OE33 cells. The heterodimer was serially diluted in PBS at concentrations of about 0, 10, 25, 50, 100, and 200 nM with about […] at 4° C. for one hour and washed with cold PBS. The mean fluorescence intensities were measured with flow cytometry (BD LSRII, BD Biosciences). The equilibrium dissociation constant Kd 1/Ka was calculated with a least-squares fit of the data to the nonlinear equation I=(I0+ImaxKa[X])/(I0+Ka[X]). I0 and Imax are the initial and maximum fluorescence intensities, corresponding to no peptide and at saturation, respectively, and [X] represents the concentration of bound peptide. Prism 5.0 software (Graphpad Inc.) was used to calculate Kd and Ka.

[11] = system: OE33 cells; test: Apparent association time constant by flow cytometry with OE33 cells; assay type: binding, human; conditions: for apparent association time constant Ka: flow cytometry, 1 μM, 4° C.; for apparent association time constant (time): value in brackets after Ka
Protocol: The apparent association time constant (Ka) was measured to assess binding kinetics to OE33 cells. OE33 cells were grown to about 80% confluence in 10 cm dishes, and cells were then detached with PBS-based cell dissociation buffer (Invitrogen). About 10^5 cells were incubated with 1 μM of the heterodimer at 4° C. for different time periods ranging from […]. The cells were centrifuged, washed with cold PBS, and fixed with 4% PFA. Flow cytometry was performed, and the median fluorescence intensity (y) was ratioed with that of OE33 cells without addition of peptide at time points (t) using Flowjo software. The rate constant K was calculated by fitting the data to the first-order kinetics model, y(t)=Imax[1−exp^(−kt)], where Imax=maximum value, using Prism 5.0 software.

[12] = system: Flo1-HER2 cells; test: Confocal binding of FITC-labeled candidate peptides to Flo1-HER2 cells; assay type: cell-based; conditions: FITC label, among five leading candidates
Protocol: A FITC label was attached to each peptide, and binding to Flo1-HER2 and QhTERT cells (control) was imaged using confocal microscopy. […] From the model, this peptide was determined to bind to HER2 domain 3. The peptide was then labeled for deep tissue imaging with a Cy5.5 fluorophore via a GGGSK (SEQ ID NO: 3) linker on the C-terminus, hereafter KSP*-Cy5.5. Cy5.5 was chosen for high quantum yield and photostability. The linker prevents steric hindrance by spatially separating the fluorophore from the peptide. A scrambled sequence PPSNFKR (SEQ ID NO: 4) was developed for use as control by altering the conformationally rigid spacer PNP and moving both hydrophobic and hydrophilic amino acids at the C-terminus. This control peptide also was linked to Cy5.5 via GGGSK (SEQ ID NO: 3), hereafter PPS*-Cy5.5. […] The fluorescence emission peak occurs at 708 nm in the NIR spectrum.

## CC1(C)C(=CC=C2CCCC(C=CC3=[N+](CCCCCC(=O)NCCN4C(=O)CC(SC[C@H](NC(=O)[C@H](CCCCNC(=O)COCCOCCOCCNC(=O)[C@H](CCC(=O)O)NC(=O)[C@H](CCCNC(=N)N)NC(=O)[C@@H]5CCCN5C(=O)[C@H](CCCCN)NC(=O)[C@H](Cc5c[nH]cn5)NC(=O)[C@H](CCCNC(=N)N)NC(=O)[C@@H](N)CCC(N)=O)NC(=O)COCCOCCOCCNC(=O)[C@H](Cc5ccccc5)NC(=O)[C@H](CCCNC(=N)N)NC(=O)[C@@H]5CCCN5C(=O)[C@H](CC(N)=O)NC(=O)[C@@H]5CCCN5C(=O)[C@H](CO)NC(=O)[C@@H](N)CCCCN)C(N)=O)C4=O)c4ccc(S(=O)(=O)O)cc4C3(C)C)=C2Oc2ccc(S(=O)(=O)O)cc2)N(CCCCS(=O)(=O)[O-])c2ccc(S(=O)(=O)O)cc21 (stereo partly drawn) [QRH*-KSP*-E3-IRDye800] (I: H-KSPNPRF[AEEEA]KC(X1)-NH2 / II: H-QRHKPRE[AEEEA]; amide I:9-II:C)
[1]
  cytotoxicity: Negligible cytotoxicity; also recorded: No cytotoxicity
[2]; confocal microscopy
  binding to surface of SKBr3 cells: Strong fluorescence intensity; also recorded: Strong binding
[2]; paired t-test
  mean fluorescence intensity SKBr3 versus OE21, OE19, and QhTERT cells: significantly greater
[3]
  Fluorescence T/B ratio, mean (±SD): 3.89±0.94
[3]; intravenous
  time of peak FL T/B ratio / intensity post-injection: 2 h
[3]; mouse, in vivo
  mean FL T/B ratio versus control peptide or PBS: significantly greater
[3]; post-injection
  time of regression of FL intensity to baseline / clearance: ~24 h
[4]
  Photoacoustic T/B ratio, mean: 2.44±0.36
[4]; intravenous
  time of peak PA T/B ratio / intensity post-injection: 2 h
[4]; mouse, in vivo
  mean PA T/B ratio versus control peptide or PBS: significantly greater
[4]; post-injection
  time of regression of PA intensity to baseline / clearance: ~24 h
[5]
  tumor uptake (biodistribution): high tumor uptake
[6]
  half-life: ~3 h
[7]; OE33 xenograft tumor sections, 3 boxes of 20×20 μm2
  T/B ratio: 5.0±0.8
[7]; immunofluorescence of sections
  binding to surface of OE33 xenograft tumor cells: strong binding

## CS(=O)(=O)CCNCc1ccc(-c2ccc3ncnc(Nc4ccc(OCc5cccc(F)c5)c(Cl)c4)c3c2)o1 [lapatinib, reference compound]
[8]; 100 nM lapatinib
  expression of phosphorylated EGFR / ErbB2 / AKT / ERK: reduced expression

## (GGGAGGG)2-E3-IRDye800: control peptide for the IRDye800 heterodimer (also: dimer via E3 linker, IRDye800 label) [reference compound]
[3]
  Fluorescence T/B ratio, mean (±SD): 3.89±0.94
[4]
  Photoacoustic T/B ratio, mean: 1.44±0.21

## EGF (NSDSECPLSHDGYCLHDGVCMYIEALDKYACNCVVGYIGERCQYRDLKWWELR; Epidermal growth factor; UniProt P01133 971-1023, looked up) [an endogenous ligand for EGFR, positive control, reference compound]
[8]; EGF 100 ng/mL, positive control
  p-AKT and p-ERK: strong phosphorylation activity; also recorded: increased expression

## IRDye800
[9]
  safety in animals: safe

## KSP*-GGGSK-Cy5.5 (KSPNPRFGGGSK-NH2; also: Cy5.5 label on C-terminal Lys side chain) [KSP*-Cy5.5]
[10]
  Kd: 54 nM
[11]
  apparent association time constant Ka: 0.35 min⁻¹
  apparent association time constant (time): 2.8 min and 2.9 min

## KSPNPRF (also: FITC label)
[12]
  mean fluorescence intensity with binding to Flo1-HER2: highest mean fluorescence intensity

## QRH*-GGGSK-Cy5.5 (QRHKPREGGGSK-NH2; also: Cy5.5 label on C-terminal Lys side chain) [QRH*-Cy5.5]
[10]
  Kd: 98 nM
[11]
  apparent association time constant Ka: 0.21 min⁻¹
  apparent association time constant (time): 4.7 min and 4.8 min
